Patent US20220233566A1, “NOVEL CARBONATE COMPOUND HAVING PYRROLOPYRIMIDINE SKELETON OR PHARMACEUTICALLY ACCEPTABLE SALT THEREOF” (TAIHO PHARMACEUTICAL CO., LTD., priority 2019, published 2022)

Assay: Presence of prodrug in mouse and absorbency (plasma AUC after oral administration)
Format: in vivo
Conditions: male, Balb/cA, mouse, 17 umol/kg, mice, 17 μmol/kg, administered compound itself in plasma, read-out: AUC0-6hr
Procedure: The dosage amounts of the compounds of Comparative Examples 1 to 5 and Examples 1 to 26 are those (mole/10 mL/kg) shown in Tables. Solutions for administration were prepared with an 0.5% aqueous solutions of HPMC so as to satisfy the dosage amounts.
Note that, the “amount of mole/10 mL/kg” means as follows: for example “10 mmol/10 mL/kg” means that 10 mmol of a test compound per body-weight (1 kg) of a mouse was dispersed or dissolved in a solution (10 mL) for administration. The same applies hereinafter.
The solutions for administration prepared above were orally administered to mice (Balb/cA, male) not fasted each by use of an oral administration sonde.
The mice were anesthetized with isoflurane 0.5, 1, 2, 4 and 6 hours after administration and blood was taken from the facial vein by use of a specific needle (animal lancet) and a heparin-coated hematocrit tube.
The blood sampled was immediately centrifuged (13000 rpm, 2 minutes, 4° C.) to prepare the plasma samples. After proteins were removed from the plasma samples, the concentrations of the test compound in the plasma samples were measured by LC/MS/MS.
The value of “area under the curve” (AUC) of drug concentration in blood versus time was calculated using analysis software such as Phoenix (registered trademark) WinNonlin (registered trademark).
In Table 3, “Comparative Example 1” and “Comparative Example 2” represent the “compound (Br form) of Comparative Example 1” and the “compound (I form) of Comparative Example 2”, respectively. In Table 4, “Comparative Example 6” represents the “compound (C1 form) of Comparative Example 6”.

Nc1ncnc2c1c(Br)cn2[C@@H]1O[C@H](CO)[C@@H](O)[C@@H]1F [Comparative Example 1, (2R,3R,4S,5R)-5-(4-amino-5-bromo-7H-pyrrolo[2,3-d]pyrimidin-7-yl)-4-fluoro-2-(hydroxymethyl) tetrahydrofuran-3-ol]
AUC(0-t): 2.07 µM·h
